Patent US8680012B2, “4-phenyl-pyrane-3,5-diones,4-phenyl-thiopyrane-3,6-diones and cyclohexanetriones as novel herbicides” (Syngenta Crop Protection LLC, priority 2006, dated 2014)

tested on: Echinochloa crus-galli (ECHCG); assay: Example B post-emergence herbicidal activity, glasshouse pot test; assay type: in vivo; conditions: 312 h, rate 1000 g/ha, evaluated after 13 days, read-out: Post-emergence activity ECHCG (100=total damage to plant; 0=no damage to plant)
Outline: (§1)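 Herbicidal effect was judged 13 days after treatment as percent-style damage (100 = total kill). Seeds in standard soil had grown 1 day (pre) or 8 days (post) in a 24/16 °C, 14 h light, 65% humidity glasshouse before spraying with compound in acetone/water (50:50) containing 0.5% Tween 20.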

SMILES	pest or weed control at 1000 g/ha
CCc1ccc(-c2ccc(Cl)c(C)c2)cc1C1=C(O)C(C)(C)C(=O)C(C)(C)C1=O [Compound B-2]	80%
Cc1ccc(-c2ccc(Cl)cc2)cc1C1=C(O)C(C)(C)C(=O)C(C)(C)C1=O [Compound B-4]	90%
Cc1ccc(-c2ccc(Cl)nc2C)cc1C1=C(O)C(C)(C)C(=O)C(C)(C)C1=O [Compound B-6]	50%
Cc1ccc(-c2ccc(Cl)cc2Cl)cc1C1=C(O)C(C)(C)C(=O)C(C)(C)C1=O [Compound B-7]	60%

tested on: Amaranthus retroflexus (AMARE); assay: as above; assay type: in vivo; conditions: 312 h, rate 1000 g/ha, evaluated after 13 days, read-out: Post-emergence activity AMARE (100=total damage to plant; 0=no damage to plant)
Outline: as §1

SMILES	pest or weed control at 1000 g/ha
CCc1ccc(-c2ccc(Cl)c(C)c2)cc1C1=C(O)C(C)(C)C(=O)C(C)(C)C1=O [Compound B-2]	70%
Cc1ccc(-c2ccc(Cl)cc2)cc1C1=C(O)C(C)(C)C(=O)C(C)(C)C1=O [Compound B-4]	70%
Cc1ccc(-c2ccc(Cl)nc2C)cc1C1=C(O)C(C)(C)C(=O)C(C)(C)C1=O [Compound B-6]	0%
Cc1ccc(-c2ccc(Cl)cc2Cl)cc1C1=C(O)C(C)(C)C(=O)C(C)(C)C1=O [Compound B-7]	70%

tested on: Solanum nigrum (SOLNI); assay: as above; assay type: in vivo; conditions: 312 h, rate 1000 g/ha, evaluated after 13 days, read-out: Post-emergence activity SOLNI (100=total damage to plant; 0=no damage to plant)
Outline: as §1

SMILES	pest or weed control at 1000 g/ha
CCc1ccc(-c2ccc(Cl)c(C)c2)cc1C1=C(O)C(C)(C)C(=O)C(C)(C)C1=O [Compound B-2]	40%
Cc1ccc(-c2ccc(Cl)cc2)cc1C1=C(O)C(C)(C)C(=O)C(C)(C)C1=O [Compound B-4]	40%
Cc1ccc(-c2ccc(Cl)nc2C)cc1C1=C(O)C(C)(C)C(=O)C(C)(C)C1=O [Compound B-6]	0%
Cc1ccc(-c2ccc(Cl)cc2Cl)cc1C1=C(O)C(C)(C)C(=O)C(C)(C)C1=O [Compound B-7]	70%

tested on: Alopecurus myosuroides (ALOMY); assay: as above; assay type: in vivo; conditions: 312 h, rate 1000 g/ha, evaluated after 13 days, read-out: Post-emergence activity ALOMY (100=total damage to plant; 0=no damage to plant)
Outline: as §1

SMILES	pest or weed control at 1000 g/ha
CCc1ccc(-c2ccc(Cl)c(C)c2)cc1C1=C(O)C(C)(C)C(=O)C(C)(C)C1=O [Compound B-2]	0%
Cc1ccc(-c2ccc(Cl)cc2)cc1C1=C(O)C(C)(C)C(=O)C(C)(C)C1=O [Compound B-4]	80%
Cc1ccc(-c2ccc(Cl)nc2C)cc1C1=C(O)C(C)(C)C(=O)C(C)(C)C1=O [Compound B-6]	20%
Cc1ccc(-c2ccc(Cl)cc2Cl)cc1C1=C(O)C(C)(C)C(=O)C(C)(C)C1=O [Compound B-7]	20%

tested on: Setaria faberi (SETFA); assay: as above; assay type: in vivo; conditions: 312 h, rate 1000 g/ha, evaluated after 13 days, read-out: Post-emergence activity SETFA (100=total damage to plant; 0=no damage to plant)
Outline: as §1

SMILES	pest or weed control at 1000 g/ha
CCc1ccc(-c2ccc(Cl)c(C)c2)cc1C1=C(O)C(C)(C)C(=O)C(C)(C)C1=O [Compound B-2]	20%
Cc1ccc(-c2ccc(Cl)cc2)cc1C1=C(O)C(C)(C)C(=O)C(C)(C)C1=O [Compound B-4]	90%
Cc1ccc(-c2ccc(Cl)nc2C)cc1C1=C(O)C(C)(C)C(=O)C(C)(C)C1=O [Compound B-6]	30%
Cc1ccc(-c2ccc(Cl)cc2Cl)cc1C1=C(O)C(C)(C)C(=O)C(C)(C)C1=O [Compound B-7]	70%

tested on: Avena fatua (AVEFA); assay: as above; assay type: in vivo; conditions: 312 h, rate 1000 g/ha, evaluated after 13 days, read-out: Post-emergence activity AVEFA (100=total damage to plant; 0=no damage to plant)
Outline: as §1

SMILES	pest or weed control at 1000 g/ha
CCc1ccc(-c2ccc(Cl)c(C)c2)cc1C1=C(O)C(C)(C)C(=O)C(C)(C)C1=O [Compound B-2]	0%
Cc1ccc(-c2ccc(Cl)cc2)cc1C1=C(O)C(C)(C)C(=O)C(C)(C)C1=O [Compound B-4]	30%
Cc1ccc(-c2ccc(Cl)nc2C)cc1C1=C(O)C(C)(C)C(=O)C(C)(C)C1=O [Compound B-6]	0%
Cc1ccc(-c2ccc(Cl)cc2Cl)cc1C1=C(O)C(C)(C)C(=O)C(C)(C)C1=O [Compound B-7]	20%

tested on: Echinochloa crus-galli (ECHCG); assay: Example B pre-emergence herbicidal activity, glasshouse pot test; assay type: in vivo; conditions: 312 h, rate 1000 g/ha, evaluated after 13 days, read-out: Pre-emergence activity ECHCG (100=total damage to plant; 0=no damage to plant)
Outline: as §1

SMILES	pest or weed control at 1000 g/ha
CCc1ccc(-c2ccc(Cl)c(C)c2)cc1C1=C(O)C(C)(C)C(=O)C(C)(C)C1=O [Compound B-2]	70%
Cc1ccc(-c2ccc(Cl)cc2)cc1C1=C(O)C(C)(C)C(=O)C(C)(C)C1=O [Compound B-4]	30%
Cc1ccc(-c2ccc(Cl)nc2C)cc1C1=C(O)C(C)(C)C(=O)C(C)(C)C1=O [Compound B-6]	0%
Cc1ccc(-c2ccc(Cl)cc2Cl)cc1C1=C(O)C(C)(C)C(=O)C(C)(C)C1=O [Compound B-7]	50%

tested on: Amaranthus retroflexus (AMARE); assay: as above; assay type: in vivo; conditions: 312 h, rate 1000 g/ha, evaluated after 13 days, read-out: Pre-emergence activity AMARE (100=total damage to plant; 0=no damage to plant)
Outline: as §1

SMILES	pest or weed control at 1000 g/ha
CCc1ccc(-c2ccc(Cl)c(C)c2)cc1C1=C(O)C(C)(C)C(=O)C(C)(C)C1=O [Compound B-2]	90%
Cc1ccc(-c2ccc(Cl)cc2)cc1C1=C(O)C(C)(C)C(=O)C(C)(C)C1=O [Compound B-4]	0%
Cc1ccc(-c2ccc(Cl)nc2C)cc1C1=C(O)C(C)(C)C(=O)C(C)(C)C1=O [Compound B-6]	100%
Cc1ccc(-c2ccc(Cl)cc2Cl)cc1C1=C(O)C(C)(C)C(=O)C(C)(C)C1=O [Compound B-7]	0%

tested on: Solanum nigrum (SOLNI); assay: as above; assay type: in vivo; conditions: 312 h, rate 1000 g/ha, evaluated after 13 days, read-out: Pre-emergence activity SOLNI (100=total damage to plant; 0=no damage to plant)
Outline: as §1

SMILES	pest or weed control at 1000 g/ha
CCc1ccc(-c2ccc(Cl)c(C)c2)cc1C1=C(O)C(C)(C)C(=O)C(C)(C)C1=O [Compound B-2]	30%
Cc1ccc(-c2ccc(Cl)cc2)cc1C1=C(O)C(C)(C)C(=O)C(C)(C)C1=O [Compound B-4]	0%
Cc1ccc(-c2ccc(Cl)nc2C)cc1C1=C(O)C(C)(C)C(=O)C(C)(C)C1=O [Compound B-6]	90%
Cc1ccc(-c2ccc(Cl)cc2Cl)cc1C1=C(O)C(C)(C)C(=O)C(C)(C)C1=O [Compound B-7]	20%

tested on: Alopecurus myosuroides (ALOMY); assay: as above; assay type: in vivo; conditions: 312 h, rate 1000 g/ha, evaluated after 13 days, read-out: Pre-emergence activity ALOMY (100=total damage to plant; 0=no damage to plant)
Outline: as §1

SMILES	pest or weed control at 1000 g/ha
CCc1ccc(-c2ccc(Cl)c(C)c2)cc1C1=C(O)C(C)(C)C(=O)C(C)(C)C1=O [Compound B-2]	0%
Cc1ccc(-c2ccc(Cl)cc2)cc1C1=C(O)C(C)(C)C(=O)C(C)(C)C1=O [Compound B-4]	0%
Cc1ccc(-c2ccc(Cl)nc2C)cc1C1=C(O)C(C)(C)C(=O)C(C)(C)C1=O [Compound B-6]	0%
Cc1ccc(-c2ccc(Cl)cc2Cl)cc1C1=C(O)C(C)(C)C(=O)C(C)(C)C1=O [Compound B-7]	0%

tested on: Setaria faberi (SETFA); assay: as above; assay type: in vivo; conditions: 312 h, rate 1000 g/ha, evaluated after 13 days, read-out: Pre-emergence activity SETFA (100=total damage to plant; 0=no damage to plant)
Outline: as §1

SMILES	pest or weed control at 1000 g/ha
CCc1ccc(-c2ccc(Cl)c(C)c2)cc1C1=C(O)C(C)(C)C(=O)C(C)(C)C1=O [Compound B-2]	0%
Cc1ccc(-c2ccc(Cl)cc2)cc1C1=C(O)C(C)(C)C(=O)C(C)(C)C1=O [Compound B-4]	0%
Cc1ccc(-c2ccc(Cl)nc2C)cc1C1=C(O)C(C)(C)C(=O)C(C)(C)C1=O [Compound B-6]	0%
Cc1ccc(-c2ccc(Cl)cc2Cl)cc1C1=C(O)C(C)(C)C(=O)C(C)(C)C1=O [Compound B-7]	60%

tested on: Avena fatua (AVEFA); assay: as above; assay type: in vivo; conditions: 312 h, rate 1000 g/ha, evaluated after 13 days, read-out: Pre-emergence activity AVEFA (100=total damage to plant; 0=no damage to plant)
Outline: as §1

SMILES	pest or weed control at 1000 g/ha
CCc1ccc(-c2ccc(Cl)c(C)c2)cc1C1=C(O)C(C)(C)C(=O)C(C)(C)C1=O [Compound B-2]	20%
Cc1ccc(-c2ccc(Cl)cc2)cc1C1=C(O)C(C)(C)C(=O)C(C)(C)C1=O [Compound B-4]	0%
Cc1ccc(-c2ccc(Cl)nc2C)cc1C1=C(O)C(C)(C)C(=O)C(C)(C)C1=O [Compound B-6]	0%
Cc1ccc(-c2ccc(Cl)cc2Cl)cc1C1=C(O)C(C)(C)C(=O)C(C)(C)C1=O [Compound B-7]	0%
